Assay results as given in patent US10000791B2, “Measurement method for human pancreatic lipase activity” (ASAHI KASEI PHARMA CORPORATION, priority 2013, dated 2018).

Biological target: T1, human pancreatic lipase (Homo sapiens, UniProt P16233)
T1 construct: As a sample, pooled serum or a control sample (a control containing a pancreatic lipase) was used; from tissue; host or cells: human serum (pooled serum, normal samples, heparin-administered samples) and control sera
T1 sequence (P16233 17-465): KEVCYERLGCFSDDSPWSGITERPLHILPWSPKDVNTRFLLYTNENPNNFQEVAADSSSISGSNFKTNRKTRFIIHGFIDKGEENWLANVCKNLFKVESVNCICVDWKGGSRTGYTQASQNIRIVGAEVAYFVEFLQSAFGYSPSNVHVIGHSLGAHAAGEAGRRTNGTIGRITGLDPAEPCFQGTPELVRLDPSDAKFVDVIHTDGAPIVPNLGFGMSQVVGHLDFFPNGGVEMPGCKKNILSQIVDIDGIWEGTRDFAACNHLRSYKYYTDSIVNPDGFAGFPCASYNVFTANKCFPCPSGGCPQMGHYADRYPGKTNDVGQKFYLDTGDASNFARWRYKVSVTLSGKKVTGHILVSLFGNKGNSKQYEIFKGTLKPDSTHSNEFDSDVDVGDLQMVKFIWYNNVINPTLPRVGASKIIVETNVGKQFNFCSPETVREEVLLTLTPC
Assay: lipase activity measured in control, normal and heparin-administered samples with each reagent (1,2-dioleoyl glycerol, UV method; Liquitech Lipase Color II for verification)
Assay type: biochemical
Settings: Recombinant pancreatic lp-containing serum

SMILES	lipase activity (Table 5) (pH 7.0)	lipase activity (Table 5) (pH 7.95)	lipase activity (Table 3) (pH 6.2)	lipase activity (Table 3) (pH 6.4)	lipase activity (Table 3) (pH 6.6)	lipase activity (Table 3) (pH 6.9)	lipase activity (Table 3) (pH 7.2)	lipase activity (Table 3) (pH 7.4)	lipase activity (Table 3) (pH 7.6)
C[C@H](CCC(=O)NCC(=O)[O-])[C@H]1CC[C@H]2[C@@H]3[C@H](O)C[C@@H]4C[C@H](O)CC[C@]4(C)[C@H]3CC[C@]12C.[Na+] [NaGCDCA, sodium glycochenodeoxycholate]	166.1 U/L	72.4 U/L	–	–	–	–	–	–	–
C[C@H](CCC(=O)NCCS(=O)(=O)[O-])[C@H]1CC[C@H]2[C@@H]3CC[C@@H]4C[C@H](O)CC[C@]4(C)[C@H]3C[C@H](O)[C@]12C.[Na+] [NaTDCA, sodium taurodeoxycholate]	–	–	180.8 U/L	184.7 U/L	211.9 U/L	233.1 U/L	229.8 U/L	217.3 U/L	168.8 U/L
